Active and inactive are the calls of the source.
Key:
BJ [1] = assay: BJ-TERT fibroblast viability loss – cell-based, RAS-independent, luminescence, dose response (AID 1933); type: functional; details: Homo sapiens
BJ [2] = assay: cells; type: functional, cell-based; details: Homo sapiens
[3] = viability of PTEN-deleted HCT116 cells – cell-based, HCT116 PTEN knockout, dose response (AID 1047); type: functional;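 note: HCT116 colon tumor cells with PTEN knocked out; cells exposed to compound for 60 hours before readout; potency for loss of cell viability measured by luminescence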
[4] = viability of HCT116 lacking mutant beta-catenin – cell-based, human colon tumor, dose response (AID 1045); type: functional;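 note: HCT116 colon tumor cells with beta catenin knocked out; cells exposed to compound for 60 hours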
BJ [5] = assay: BJ-TERT-LT-ST fibroblast viability loss – cell-based, RAS-independent, luminescence, dose response (AID 1935); type: functional; details: Homo sapiens;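 note: BJ fibroblasts immortalized with TERT plus LT and ST oncogenes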
[6] = DRD fibroblast viability loss – cell-based, non-viral oncogenic, luminescence, dose response (AID 1934); type: functional; details: Homo sapiens
[7] = biological target: Voltage-dependent T-type calcium channel subunit alpha-1H (Homo sapiens, UniProt O95180); type: functional;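 note: channel activity triggered by adding a high calcium stimulation buffer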
Voltage-dependent T-type calcium channel subunit alpha-1H, sequence (O95180 whole entry): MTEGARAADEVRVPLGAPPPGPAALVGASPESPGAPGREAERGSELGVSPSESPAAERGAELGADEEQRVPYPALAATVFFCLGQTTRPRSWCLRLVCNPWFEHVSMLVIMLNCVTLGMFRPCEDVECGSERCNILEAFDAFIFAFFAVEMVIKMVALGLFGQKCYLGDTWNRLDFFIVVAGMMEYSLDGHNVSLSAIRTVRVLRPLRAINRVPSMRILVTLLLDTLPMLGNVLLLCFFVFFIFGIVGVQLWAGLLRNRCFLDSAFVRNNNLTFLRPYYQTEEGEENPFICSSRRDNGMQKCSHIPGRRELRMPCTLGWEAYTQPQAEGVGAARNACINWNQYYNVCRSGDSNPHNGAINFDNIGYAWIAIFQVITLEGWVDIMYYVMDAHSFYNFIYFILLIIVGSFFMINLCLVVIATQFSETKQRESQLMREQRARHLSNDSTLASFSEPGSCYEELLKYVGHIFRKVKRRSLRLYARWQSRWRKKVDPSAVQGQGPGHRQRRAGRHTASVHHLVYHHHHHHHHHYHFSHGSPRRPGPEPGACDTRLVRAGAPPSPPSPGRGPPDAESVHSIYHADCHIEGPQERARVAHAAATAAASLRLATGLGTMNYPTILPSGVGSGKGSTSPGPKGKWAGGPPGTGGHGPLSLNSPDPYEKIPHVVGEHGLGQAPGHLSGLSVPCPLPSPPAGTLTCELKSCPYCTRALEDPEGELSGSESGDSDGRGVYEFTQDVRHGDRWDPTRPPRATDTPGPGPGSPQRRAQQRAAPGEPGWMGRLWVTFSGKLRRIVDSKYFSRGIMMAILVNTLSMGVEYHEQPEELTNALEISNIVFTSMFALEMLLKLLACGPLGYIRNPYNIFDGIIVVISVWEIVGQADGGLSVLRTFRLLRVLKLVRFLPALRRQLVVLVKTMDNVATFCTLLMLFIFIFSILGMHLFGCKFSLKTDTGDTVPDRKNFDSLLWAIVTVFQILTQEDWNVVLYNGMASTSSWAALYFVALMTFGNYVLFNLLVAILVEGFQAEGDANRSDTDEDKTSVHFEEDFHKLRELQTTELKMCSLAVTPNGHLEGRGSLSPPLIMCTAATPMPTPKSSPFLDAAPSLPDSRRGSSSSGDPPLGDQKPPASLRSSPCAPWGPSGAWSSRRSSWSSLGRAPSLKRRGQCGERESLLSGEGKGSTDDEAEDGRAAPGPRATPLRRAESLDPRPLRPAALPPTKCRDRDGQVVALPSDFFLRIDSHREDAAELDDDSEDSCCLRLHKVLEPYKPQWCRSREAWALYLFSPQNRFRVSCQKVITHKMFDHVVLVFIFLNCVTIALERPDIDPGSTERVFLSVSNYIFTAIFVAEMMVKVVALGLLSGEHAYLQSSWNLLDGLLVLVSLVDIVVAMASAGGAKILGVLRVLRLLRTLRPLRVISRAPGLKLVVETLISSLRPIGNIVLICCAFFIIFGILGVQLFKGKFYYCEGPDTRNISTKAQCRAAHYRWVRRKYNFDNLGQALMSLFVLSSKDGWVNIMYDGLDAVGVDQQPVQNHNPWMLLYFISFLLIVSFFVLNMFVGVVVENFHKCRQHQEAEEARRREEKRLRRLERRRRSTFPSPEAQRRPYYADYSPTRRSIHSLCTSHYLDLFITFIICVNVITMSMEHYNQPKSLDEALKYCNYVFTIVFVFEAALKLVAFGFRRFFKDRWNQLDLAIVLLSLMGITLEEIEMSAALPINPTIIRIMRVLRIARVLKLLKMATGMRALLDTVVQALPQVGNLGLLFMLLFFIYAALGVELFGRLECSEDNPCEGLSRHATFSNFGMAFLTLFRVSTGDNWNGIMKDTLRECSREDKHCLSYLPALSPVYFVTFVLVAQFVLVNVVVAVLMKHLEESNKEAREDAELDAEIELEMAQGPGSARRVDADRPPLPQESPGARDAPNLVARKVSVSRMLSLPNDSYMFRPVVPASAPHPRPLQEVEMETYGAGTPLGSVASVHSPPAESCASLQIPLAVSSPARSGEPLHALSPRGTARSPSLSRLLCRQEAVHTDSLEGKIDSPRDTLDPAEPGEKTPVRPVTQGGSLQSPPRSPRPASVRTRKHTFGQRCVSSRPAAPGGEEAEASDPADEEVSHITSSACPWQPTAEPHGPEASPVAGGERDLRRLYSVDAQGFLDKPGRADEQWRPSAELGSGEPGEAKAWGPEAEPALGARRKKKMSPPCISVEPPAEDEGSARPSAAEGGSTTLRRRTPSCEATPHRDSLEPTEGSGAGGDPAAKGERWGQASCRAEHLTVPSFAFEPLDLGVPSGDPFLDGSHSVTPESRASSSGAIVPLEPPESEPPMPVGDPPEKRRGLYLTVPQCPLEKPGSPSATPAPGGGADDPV

[8] = biological target: Dual specificity tyrosine-phosphorylation-regulated kinase 1A (Rattus norvegicus, UniProt Q63470); type: biochemical, Homo sapiens
[9] = biological target: T1, Lysine-specific demethylase 4C (Homo sapiens, UniProt Q9H3R0); assay: inhibition of JMJD2C H3K9me3 demethylation – biochemical, DELFIA europium, cherry-picked samples, dose response (AID 488835); type: functional
T1 sequence (Q9H3R0 whole entry): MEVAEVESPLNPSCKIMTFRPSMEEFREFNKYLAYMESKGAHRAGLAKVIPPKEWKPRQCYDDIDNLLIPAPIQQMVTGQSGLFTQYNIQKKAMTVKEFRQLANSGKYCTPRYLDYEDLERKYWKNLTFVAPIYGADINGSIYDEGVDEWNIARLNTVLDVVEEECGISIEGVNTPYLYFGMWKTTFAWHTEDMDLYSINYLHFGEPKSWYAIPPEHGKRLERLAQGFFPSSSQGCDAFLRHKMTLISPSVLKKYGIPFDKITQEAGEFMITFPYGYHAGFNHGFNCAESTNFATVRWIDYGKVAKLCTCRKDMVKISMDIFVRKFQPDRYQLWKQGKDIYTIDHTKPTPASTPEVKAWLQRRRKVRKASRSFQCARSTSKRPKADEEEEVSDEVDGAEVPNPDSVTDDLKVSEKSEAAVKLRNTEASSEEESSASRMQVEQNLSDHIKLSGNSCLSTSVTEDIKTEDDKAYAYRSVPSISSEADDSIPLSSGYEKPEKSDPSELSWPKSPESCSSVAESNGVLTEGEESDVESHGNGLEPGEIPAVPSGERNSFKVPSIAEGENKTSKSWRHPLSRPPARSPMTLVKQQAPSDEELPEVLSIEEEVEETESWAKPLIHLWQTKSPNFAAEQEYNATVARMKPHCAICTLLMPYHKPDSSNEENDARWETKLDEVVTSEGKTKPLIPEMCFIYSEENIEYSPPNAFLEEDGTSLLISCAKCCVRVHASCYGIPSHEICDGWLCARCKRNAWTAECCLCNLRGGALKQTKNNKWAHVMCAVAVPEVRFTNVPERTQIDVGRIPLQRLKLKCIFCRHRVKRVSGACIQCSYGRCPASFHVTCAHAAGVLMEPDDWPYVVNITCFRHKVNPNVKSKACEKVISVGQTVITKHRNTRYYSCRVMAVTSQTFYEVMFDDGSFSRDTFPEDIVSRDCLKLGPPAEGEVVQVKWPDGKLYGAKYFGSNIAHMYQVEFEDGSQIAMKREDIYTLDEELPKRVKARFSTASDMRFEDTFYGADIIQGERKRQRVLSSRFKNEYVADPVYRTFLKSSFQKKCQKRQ

[10] = viability of uninfected HEp-2 cells – cell-based, HTS, cytotoxicity control for RSV inhibitor project, dose response (AID 2410); type: functional; details: human respiratory syncytial virus
[11] = microbe, parasite or virus in culture; type: functional; details: Mycobacterium tuberculosis
cells [12] = type: functional, cell-based
cells [13] = type: functional, cell-based; remark: listed apart in the source
Vero = assay: cells; type: functional; details: Chlorocebus sabaeus
[14] = reduction of Shn3 3'UTR-driven luciferase in osteoblasts – cell-based, Clone20 osteoblasts, firefly luciferase, cherry-picked, dose response (AID 624132); type: functional;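 note: firefly luciferase luminescence from reporter carrying the Shn3 3'UTR in osteoblasts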
[15] = loss of viability in HepG2 cells – cell-based, CellTiter-Glo, cherry-picked, cytotoxicity control for Shn3 inhibitor project, dose response (AID 624134); type: functional
[16] = non-specific 3'UTR reporter inhibition in Clone20-Shn3RL – cell-based, Renilla luciferase, cherry-picked, counter-screen for Shn3 inhibitor project, dose response (AID 624133); type: functional
cells [17] = type: functional
[18] = biological target: T2, Ubiquitin-conjugating enzyme E2 N (Homo sapiens, UniProt P61088); type: functional;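 note: Dose-response confirmation in a TR-FRET assay detecting UBC13-driven polyubiquitin chain formation, inhibition measured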
T2 sequence (P61088 whole entry): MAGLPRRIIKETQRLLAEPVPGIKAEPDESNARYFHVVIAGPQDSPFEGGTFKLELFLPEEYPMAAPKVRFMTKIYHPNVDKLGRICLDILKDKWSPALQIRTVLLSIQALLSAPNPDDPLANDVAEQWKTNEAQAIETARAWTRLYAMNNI

Nonstructural protein 1 = Nonstructural protein 1 (Influenza A virus, UniProt Q194T2); type: functional, Influenza A virus (A/California/07/2009(H1N1))
Nonstructural protein 1, sequence (Q194T2 whole entry): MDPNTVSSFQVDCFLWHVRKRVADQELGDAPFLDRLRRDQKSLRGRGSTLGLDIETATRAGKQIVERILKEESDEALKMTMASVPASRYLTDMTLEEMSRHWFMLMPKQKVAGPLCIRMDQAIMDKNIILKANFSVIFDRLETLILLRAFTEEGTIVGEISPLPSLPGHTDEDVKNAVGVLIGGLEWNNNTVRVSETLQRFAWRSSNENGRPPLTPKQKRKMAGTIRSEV

[19] = Luminescence Cell-Based Dose Retest to Confirm Inhibitors of Cancer Stem Cells. [Related pubchem assays (depositor defined):AID2717, AID2721]; type: functional; details: Homo sapiens
[20] = biological target: T3, DNA repair protein RAD52 homolog (Homo sapiens, UniProt P43351); type: functional, biochemical
T3 sequence (P43351 whole entry): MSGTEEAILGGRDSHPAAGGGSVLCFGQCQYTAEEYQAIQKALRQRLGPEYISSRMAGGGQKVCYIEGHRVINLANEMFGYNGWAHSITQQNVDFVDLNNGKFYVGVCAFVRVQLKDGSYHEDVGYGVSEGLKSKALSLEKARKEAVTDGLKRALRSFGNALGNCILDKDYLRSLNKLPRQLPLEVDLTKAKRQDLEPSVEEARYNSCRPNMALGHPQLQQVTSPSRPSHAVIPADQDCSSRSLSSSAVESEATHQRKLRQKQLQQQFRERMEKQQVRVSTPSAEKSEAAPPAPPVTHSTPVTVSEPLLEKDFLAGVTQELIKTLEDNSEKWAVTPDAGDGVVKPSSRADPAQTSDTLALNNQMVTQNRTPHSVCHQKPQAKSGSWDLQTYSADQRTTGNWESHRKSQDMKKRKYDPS

In the case of `C[C@@]1(CO)[C@H](O)CC[C@@]2(C)[C@H]1CC[C@H]1C[C@@H]3C[C@@]12CC[C@]3(O)CO` [APHIDICOLIN], the EC50 (BJ [1]) is reported as 38.6 µM (active), the EC50 (BJ [2]) is reported as 28.6 µM (active) and the EC50 [3] is reported as 839 nM (active). The EC50 [4] was 1.73 µM (active), the EC50 (BJ [5]) was > 150 µM (not active) and the EC50 [6] was > 150 µM (inconclusive).
In the case of `COc1ccc(OC)c2sc(NC(=O)C3COc4ccccc4O3)nc12` (centres undefined), the EC50 [7] is reported as 78 µM (active).
In the case of `O=C(CC(SCCO)c1ccc2c(c1)OCO2)c1ccco1` (centres undefined), the AC50 [8] is reported as 0.563 µM (active).
For `O=C(OCc1nnc(-c2ccccc2)o1)c1cc(S(=O)(=O)N2CCOCC2)c(Cl)cc1Cl`, the AC50 [9] was 10.8 µM (active).
In the case of `CCOC(=O)c1[nH]c2ccc(F)cc2c1NC(=O)CN1CCN(C/C=C/c2ccccc2)CC1`, the CC50 [10] is reported as 8.01 µM (active) and the CC50 [11] is reported as 22.4 µM (active).
In the case of `Cc1ccc2[nH]c(/C(C#N)=C\c3cc(O)ccc3[N+](=O)[O-])nc2c1`, the AC50 [8] is reported as 1.82 µM (active).
For `Cc1ccccc1NC(=O)c1c(F)c(F)c(F)c(F)c1F`, the AC50 [9] was 29.3 µM (active).
With `CCCCOC(=O)n1c(=O)oc2cc(S(=O)(=O)N3CCCCC3)ccc21` the EC50 (cells [12]) was > 350 µM (not active), the EC50 (cells [13]) was > 350 µM (not active) and the EC50 [7] was 4.48 µM (active).
In the case of `CCCCCCNC(=O)O[C@H]1Cn2c(=O)ccc(=O)n2[C@@H]2CN(S(=O)(=O)c3ccc(C)cc3)C[C@]12O`, the CC50 (Vero) is reported as 24 µM (active), the AC50 [14] is reported as 14.1 µM (active) and the AC50 [15] is reported as 19.1 µM (active). For the same compound, the AC50 [16] was 31.5 µM (active).
For `O=C(N/N=C/c1ccc[nH]1)c1ccncc1`, the IC50 (cells [17]) was 2.28 µM (active).
For `COCCCNC(=S)NNC(=O)c1ccccn1`, the IC50 [18] was > 20 µM (inactive), the IC50 (Nonstructural protein 1) was 2.32 µM (active) and the AC50 [9] was 24.1 µM (active).
For `COc1ccc(C2=Nn3c(nnc3-c3ccccc3F)SC2)cc1OC1CCCC1`, the CC50 [11] was 9.04 µM (active), the AC50 [19] was 6.06 µM (active) and the IC50 [18] was > 20 µM (inactive).
With `O=C1/C(=C/c2ccc3c(c2)OCO3)Oc2cc(OCC(=O)N3CC(O)C[C@H]3C(=O)O)ccc21` (some centres undefined) the AC50 [8] was 3.56 µM (active).
With `Cc1cc(N2CCN(C)CC2)nc2ccc(NC(S)=NCc3cccs3)cc12` the AC50 [20] was 17 µM (active).

From ChEMBL document CHEMBL1201862, “PubChem BioAssay data set” (2004)
